Reference: article PMC11186346, “Conformational flexibility driving charge-selective substrate translocation across a bacterial transporter” (Chemical Science, 2024)
Where two headings read alike, the source gives them in different places.

How the values were obtained:
native CymA = biological target: T1, native CymA (Klebsiella oxytoca, UniProt Q48391); experiment: single-channel electrical recording, planar lipid bilayer; type: biochemical; conditions: +50 mV
T1 construct: full-length mature pore, residues 1-324, purified as described in earlier work, reconstituted in DPhPC planar lipid bilayers; monomeric beta-barrel
T1 sequence (Q48391 23-346): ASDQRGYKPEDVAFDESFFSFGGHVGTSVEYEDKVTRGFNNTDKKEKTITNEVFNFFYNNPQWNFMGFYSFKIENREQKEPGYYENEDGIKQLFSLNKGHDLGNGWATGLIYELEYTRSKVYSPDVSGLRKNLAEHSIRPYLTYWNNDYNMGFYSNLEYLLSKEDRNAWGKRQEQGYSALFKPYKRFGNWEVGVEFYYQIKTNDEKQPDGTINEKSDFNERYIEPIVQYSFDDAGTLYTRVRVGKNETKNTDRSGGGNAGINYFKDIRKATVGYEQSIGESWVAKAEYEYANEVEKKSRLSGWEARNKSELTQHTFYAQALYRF

truncated CymA (ΔN15) = truncated CymA (ΔN15) (Klebsiella oxytoca, UniProt Q48391); conditions: +50 mV
[1] = pH 8.0, 1 M KCl, 10 mM HEPES, trans side, mean dwell time of blockage (koff = 1/τoff)
[2] = pH 6.0, mean dwell time of blockage

SMILES	τoff (native CymA; [1])	τoff (truncated CymA (ΔN15); [1])	τoff (native CymA; [2])	τoff (truncated CymA (ΔN15); [2])
NC[C@H]1O[C@@H]2O[C@H]3[C@H](O)[C@@H](O)[C@@H](O[C@H]4[C@H](O)[C@@H](O)[C@@H](O[C@H]5[C@H](O)[C@@H](O)[C@@H](O[C@H]6[C@H](O)[C@@H](O)[C@@H](O[C@H]7[C@H](O)[C@@H](O)[C@@H](O[C@H]1[C@H](O)[C@H]2O)O[C@@H]7CN)O[C@@H]6CN)O[C@@H]5CN)O[C@@H]4CN)O[C@@H]3CN [am6αCD]	0.55 ± 0.06 ms	0.32 ± 0.04 ms	–	–
OC[C@H]1O[C@@H]2O[C@H]3[C@H](O)[C@@H](O)[C@@H](O[C@H]4[C@H](O)[C@@H](O)[C@@H](O[C@H]5[C@H](O)[C@@H](O)[C@@H](O[C@H]6[C@H](O)[C@@H](O)[C@@H](O[C@H]7[C@H](O)[C@@H](O)[C@@H](O[C@H]1[C@H](O)[C@H]2O)O[C@@H]7CO)O[C@@H]6CO)O[C@@H]5CO)O[C@@H]4CO)O[C@@H]3CO [αCD]	–	–	0.620 ± 0.05 ms	0.4500 ± 0.04 ms
